Source: ChEMBL document CHEMBL5291721, “A preclinical secondary pharmacology resource illuminates target-adverse drug reaction associations of marketed drugs” (Nat Commun, 2023)

How the values were obtained:
[1] = target: T1, Alpha-2A adrenergic receptor (Homo sapiens, UniProt P08913)
T1 sequence (P08913 whole entry): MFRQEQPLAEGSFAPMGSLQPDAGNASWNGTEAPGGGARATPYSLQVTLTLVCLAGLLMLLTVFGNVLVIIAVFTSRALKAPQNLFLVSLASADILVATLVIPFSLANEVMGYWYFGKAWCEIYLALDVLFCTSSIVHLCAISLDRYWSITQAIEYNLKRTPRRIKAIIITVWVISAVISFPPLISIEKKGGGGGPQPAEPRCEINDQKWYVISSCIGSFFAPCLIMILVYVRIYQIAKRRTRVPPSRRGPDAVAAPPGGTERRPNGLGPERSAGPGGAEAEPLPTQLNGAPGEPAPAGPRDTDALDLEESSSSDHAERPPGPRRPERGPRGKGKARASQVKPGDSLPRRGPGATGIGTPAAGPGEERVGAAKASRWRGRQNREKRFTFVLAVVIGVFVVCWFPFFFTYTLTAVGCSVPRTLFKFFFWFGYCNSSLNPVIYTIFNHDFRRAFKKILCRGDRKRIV

[2] = target: T2, Estrogen receptor (Homo sapiens, UniProt P03372)
T2 sequence (P03372 whole entry): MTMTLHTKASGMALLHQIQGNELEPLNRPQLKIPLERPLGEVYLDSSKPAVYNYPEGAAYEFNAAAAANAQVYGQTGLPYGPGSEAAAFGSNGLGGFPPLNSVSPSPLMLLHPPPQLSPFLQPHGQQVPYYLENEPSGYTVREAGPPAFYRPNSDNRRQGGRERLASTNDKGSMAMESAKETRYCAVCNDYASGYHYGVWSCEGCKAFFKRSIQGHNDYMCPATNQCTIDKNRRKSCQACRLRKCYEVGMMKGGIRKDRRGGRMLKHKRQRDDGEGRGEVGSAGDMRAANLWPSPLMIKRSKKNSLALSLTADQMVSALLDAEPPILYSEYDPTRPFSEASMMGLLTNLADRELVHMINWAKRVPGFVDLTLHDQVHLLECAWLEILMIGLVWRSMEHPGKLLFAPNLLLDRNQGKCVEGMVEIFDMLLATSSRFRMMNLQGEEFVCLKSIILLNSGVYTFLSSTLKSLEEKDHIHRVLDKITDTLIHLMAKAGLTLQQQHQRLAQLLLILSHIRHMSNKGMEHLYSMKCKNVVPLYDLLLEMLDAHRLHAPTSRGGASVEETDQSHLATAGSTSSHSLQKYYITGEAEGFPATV

[3] = target: Prothrombin (Homo sapiens, UniProt P00734); assay type: functional
[4] = target: Mu-type opioid receptor (Homo sapiens, UniProt P35372)
Chain of Mu-type opioid receptor (P35372 whole entry): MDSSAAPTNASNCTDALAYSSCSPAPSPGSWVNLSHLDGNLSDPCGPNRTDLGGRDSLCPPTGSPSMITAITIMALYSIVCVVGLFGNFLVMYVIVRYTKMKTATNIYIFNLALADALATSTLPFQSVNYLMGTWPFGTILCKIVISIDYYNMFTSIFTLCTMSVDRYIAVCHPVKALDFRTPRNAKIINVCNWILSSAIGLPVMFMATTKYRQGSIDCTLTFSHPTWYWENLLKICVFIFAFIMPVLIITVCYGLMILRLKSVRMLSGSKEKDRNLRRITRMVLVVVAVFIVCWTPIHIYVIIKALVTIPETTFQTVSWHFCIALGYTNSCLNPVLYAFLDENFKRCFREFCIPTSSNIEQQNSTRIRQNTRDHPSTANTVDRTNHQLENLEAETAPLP

[5] = target: Histamine H1 receptor (Homo sapiens, UniProt P35367); assay type: functional, cell-based
Chain of Histamine H1 receptor (P35367 whole entry): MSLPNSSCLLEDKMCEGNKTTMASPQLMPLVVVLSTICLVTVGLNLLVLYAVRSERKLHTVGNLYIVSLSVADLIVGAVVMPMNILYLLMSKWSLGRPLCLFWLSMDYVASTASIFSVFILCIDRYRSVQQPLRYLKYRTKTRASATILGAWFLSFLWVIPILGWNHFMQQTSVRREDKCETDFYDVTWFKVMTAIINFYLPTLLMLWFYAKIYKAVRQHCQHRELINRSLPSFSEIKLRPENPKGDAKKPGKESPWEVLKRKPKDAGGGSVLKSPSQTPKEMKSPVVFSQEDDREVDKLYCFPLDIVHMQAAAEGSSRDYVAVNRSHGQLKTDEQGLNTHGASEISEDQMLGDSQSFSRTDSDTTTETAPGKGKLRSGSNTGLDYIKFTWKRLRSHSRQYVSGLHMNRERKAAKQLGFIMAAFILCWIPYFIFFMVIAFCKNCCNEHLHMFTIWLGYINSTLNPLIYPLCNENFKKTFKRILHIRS

[6] = target: T3, Peroxisome proliferator-activated receptor gamma (Homo sapiens, UniProt P37231); assay type: functional
T3 sequence (P37231 whole entry): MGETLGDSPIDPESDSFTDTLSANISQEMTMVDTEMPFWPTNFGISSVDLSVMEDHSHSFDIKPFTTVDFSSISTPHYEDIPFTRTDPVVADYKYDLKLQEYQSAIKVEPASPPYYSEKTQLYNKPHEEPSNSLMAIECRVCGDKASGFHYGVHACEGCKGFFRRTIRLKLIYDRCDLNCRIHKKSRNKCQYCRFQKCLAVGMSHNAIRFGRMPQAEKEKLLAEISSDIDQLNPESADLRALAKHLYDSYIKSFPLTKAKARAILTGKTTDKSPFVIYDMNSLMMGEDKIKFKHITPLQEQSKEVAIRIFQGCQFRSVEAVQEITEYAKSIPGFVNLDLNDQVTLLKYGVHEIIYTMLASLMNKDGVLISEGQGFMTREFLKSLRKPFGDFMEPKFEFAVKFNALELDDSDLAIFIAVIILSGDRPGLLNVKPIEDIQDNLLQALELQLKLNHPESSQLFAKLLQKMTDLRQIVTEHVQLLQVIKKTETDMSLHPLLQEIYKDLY

[7] = target: T4, B1 bradykinin receptor (Homo sapiens, UniProt P46663)
T4 sequence (P46663 whole entry): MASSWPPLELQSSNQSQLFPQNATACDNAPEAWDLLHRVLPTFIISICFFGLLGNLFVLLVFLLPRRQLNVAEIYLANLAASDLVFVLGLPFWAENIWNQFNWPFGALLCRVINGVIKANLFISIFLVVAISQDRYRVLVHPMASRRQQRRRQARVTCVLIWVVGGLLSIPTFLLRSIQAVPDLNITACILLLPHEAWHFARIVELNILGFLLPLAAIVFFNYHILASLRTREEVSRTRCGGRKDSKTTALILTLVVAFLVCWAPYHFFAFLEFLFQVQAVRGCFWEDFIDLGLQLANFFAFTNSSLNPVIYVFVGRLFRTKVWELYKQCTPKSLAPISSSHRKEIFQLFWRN

[8] = target: Estrogen receptor beta (Homo sapiens, UniProt Q92731)
Chain of Estrogen receptor beta (Q92731 whole entry): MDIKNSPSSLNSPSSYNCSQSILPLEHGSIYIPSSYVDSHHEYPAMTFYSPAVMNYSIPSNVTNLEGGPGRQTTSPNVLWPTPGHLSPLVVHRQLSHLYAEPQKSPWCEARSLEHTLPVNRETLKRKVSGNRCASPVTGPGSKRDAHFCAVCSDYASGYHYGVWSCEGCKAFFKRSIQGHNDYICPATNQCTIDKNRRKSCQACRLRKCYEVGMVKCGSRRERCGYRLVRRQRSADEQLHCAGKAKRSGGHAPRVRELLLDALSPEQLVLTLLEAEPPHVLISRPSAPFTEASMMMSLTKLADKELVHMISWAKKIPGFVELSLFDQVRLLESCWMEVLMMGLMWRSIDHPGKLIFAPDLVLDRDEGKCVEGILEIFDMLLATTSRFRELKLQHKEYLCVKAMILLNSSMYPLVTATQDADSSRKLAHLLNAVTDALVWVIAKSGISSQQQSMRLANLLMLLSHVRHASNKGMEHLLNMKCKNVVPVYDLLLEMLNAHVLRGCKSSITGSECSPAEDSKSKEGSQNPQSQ

[9] = target: Glucagon receptor (Homo sapiens, UniProt P47871)
Chain of Glucagon receptor (P47871 whole entry): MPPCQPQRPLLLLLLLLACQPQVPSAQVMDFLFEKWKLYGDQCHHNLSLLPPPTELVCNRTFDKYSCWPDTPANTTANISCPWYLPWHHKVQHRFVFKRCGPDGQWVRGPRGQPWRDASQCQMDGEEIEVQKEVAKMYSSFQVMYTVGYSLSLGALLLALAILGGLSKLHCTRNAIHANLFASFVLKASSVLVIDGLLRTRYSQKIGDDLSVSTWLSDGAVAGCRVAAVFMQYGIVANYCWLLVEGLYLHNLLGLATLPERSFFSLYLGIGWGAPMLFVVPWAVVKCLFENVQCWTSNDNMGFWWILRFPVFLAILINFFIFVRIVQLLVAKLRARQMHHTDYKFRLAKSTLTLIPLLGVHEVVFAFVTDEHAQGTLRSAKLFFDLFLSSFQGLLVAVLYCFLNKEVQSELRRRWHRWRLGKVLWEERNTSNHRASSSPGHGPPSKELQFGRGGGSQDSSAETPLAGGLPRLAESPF

[10] = target: T5, Neuropeptide Y receptor type 2 (Homo sapiens, UniProt P49146)
T5 sequence (P49146 whole entry): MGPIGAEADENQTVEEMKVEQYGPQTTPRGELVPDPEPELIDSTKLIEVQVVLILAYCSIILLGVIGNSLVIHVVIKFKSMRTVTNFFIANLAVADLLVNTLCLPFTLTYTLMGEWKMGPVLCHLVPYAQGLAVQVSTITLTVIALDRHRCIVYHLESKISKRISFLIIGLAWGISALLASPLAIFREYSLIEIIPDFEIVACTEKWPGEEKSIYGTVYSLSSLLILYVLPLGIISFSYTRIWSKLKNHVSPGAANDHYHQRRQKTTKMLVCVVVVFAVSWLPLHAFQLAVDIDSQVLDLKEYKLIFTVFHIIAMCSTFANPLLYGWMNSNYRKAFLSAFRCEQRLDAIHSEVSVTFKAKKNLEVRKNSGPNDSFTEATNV

[11] = target: 5-hydroxytryptamine receptor 6 (Homo sapiens, UniProt P50406)
Chain of 5-hydroxytryptamine receptor 6 (P50406 whole entry): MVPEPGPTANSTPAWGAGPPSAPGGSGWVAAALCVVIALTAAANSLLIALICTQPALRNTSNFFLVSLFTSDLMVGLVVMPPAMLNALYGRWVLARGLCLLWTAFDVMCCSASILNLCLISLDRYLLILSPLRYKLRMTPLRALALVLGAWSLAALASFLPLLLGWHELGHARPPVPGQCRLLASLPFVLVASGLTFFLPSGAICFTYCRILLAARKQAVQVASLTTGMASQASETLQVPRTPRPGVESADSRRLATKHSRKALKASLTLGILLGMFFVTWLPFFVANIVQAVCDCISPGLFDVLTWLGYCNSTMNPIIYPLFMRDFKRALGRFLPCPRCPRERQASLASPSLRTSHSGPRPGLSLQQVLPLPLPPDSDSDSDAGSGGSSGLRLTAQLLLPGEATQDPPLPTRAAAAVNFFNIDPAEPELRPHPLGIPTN
Note: assay procedure not described here.

O=C(O)CCCCC1CCSS1 (stereo not drawn) [LIPOIC ACID, ALPHA]
AC50 [1]: > 30 µM
AC50 [2]: > 10 µM
AC50 [3]: > 30 µM
AC50 [4]: > 30 µM

OCc1cc(C(O)CNCCCCCCOCCCCc2ccccc2)ccc1O (stereo unspecified) [SALMETEROL]
AC50 [5]: > 30 µM

Nc1c2ccccc2nc2ccccc12 [AMINACRINE]
AC50 [1]: 16.9 µM
AC50 [2]: > 30 µM
AC50 [3]: > 30 µM
AC50 [4]: 13.8 µM

Oc1ccc2c(c1)[C@@]13CCCC[C@@]1(O)[C@@H](C2)N(CC1CCC1)CC3 [BUTORPHANOL]
AC50 [6]: > 30 µM

CC(=O)OCC(=O)[C@@]1(O)[C@H](C)C[C@H]2[C@@H]3CCC4=CC(=O)C=C[C@]4(C)[C@@]3(F)[C@@H](O)C[C@@]21C [DEXAMETHASONE ACETATE]
AC50 [7]: > 30 µM
AC50 [8]: > 30 µM
AC50 [9]: > 30 µM
AC50 [10]: > 30 µM

Cn1c(=O)cc(N2CCC[C@@H](N)C2)n(Cc2ccccc2C#N)c1=O [ALOGLIPTIN]
AC50 [7]: > 30 µM
AC50 [8]: > 30 µM
AC50 [9]: > 30 µM
AC50 [11]: > 10 µM
AC50 [10]: > 30 µM

CCN1CCCC1CNC(=O)c1cc(S(=O)(=O)CC)c(N)cc1OC (stereo unspecified) [AMISULPRIDE]
AC50 [5]: > 30 µM
AC50 [6]: > 30 µM
